From patent US11649238B2, “Substituted pyrazolo[1,5-a]pyrimidines as PI4K inhibitors” (GLAXOSMITHKLINE INTELLECTUAL PROPERTY DEVELOPMENT LIMITED, priority 2018, dated 2023)

What was measured:
[1] = test system: human rhinovirus Type A Strain 16 (HRVA16) in HeLa Ohio cells; assay: Cytopathic Effect (CPE) Assay, ATP-depletion in infected HeLa Ohio cells; type: cell-based; settings: Human rhinovirus sp., HRVA16, HeLa, 48 h, HRVA16 at MOI of 1, 33° C. for 2 days, CellTiter-Glo, read-out: mean pIC50 (converted)
Procedure: c) Cytopathic Effect (CPE) Assay Protocol
The in vitro inhibition of PI4 KB activity was determined by analysis of the inhibition of ATP-depletion in HeLa Ohio cells in response to infection with human rhinovirus Type A Strain 16 (HRVA16). ATP levels were determined using CellTiter-GLO reagent from Promega. Compounds that inhibit PI4 KB are also potent inhibitors of human rhinoviruses and are able to protect HeLa Ohio cells from CPE induced by viral infection and replication. Protected cells remain viable following viral infection and therefore have greater ATP levels.
Compounds were dissolved in 100% DMSO to a concentration of 3 mM and subsequent dilutions were prepared in 100% DMSO using a 1:3 serial step dilution. A 0.5 μL stamp from an 10-point titration was transferred to a white 96 well Greiner tissue culture flat bottom plate (655083). A 0.5 μL stamp of 100% DMSO was stamped into columns 11 and 12 of the plate, ensuring a final assay DMSO concentration of 0.33% across the plate and a compound top final assay concentration of 10 μM.
HeLa Ohio cells were cultured at 37° C., 5% CO2 in media (DMEM supplemented with 10% Australian origin foetal bovine serum and 2 mM glutamax). Cells were passaged when confluency reached >80%. For the assay, cells were grown to 80-90% confluency before detachment.
Cells were detached for the assay by washing with PBS and detached using 3 mL TrypLE Express for […] at 37° C. Detached cells were mixed with 7 mL of media and centrifuged at 300 g for 5 min. The cell pellet was resuspended in 50 mL media and counted on a Beckman Coulter ViCell. Cells were diluted to 6.6×10^4 cells/mL and some of the cell volume was removed into a new tube to be used as a column 12 control. HRVA16 stock was added to the remaining cell suspension at the appropriate dilution for the virus stock to achieve an MOI of 1.
150 μL of the cell+virus suspension was added per well to columns 1-11 using a Multidrop Combi. 150 μL of the separate cell suspension was added per well to columns 12 using a multichannel pipette. Assay plates were sealed and incubated at 33° C., 5% CO2 for 2 days. After 2 days, assay plates were removed from the incubator and allowed to equilibrate to room temperature. 60 μL of CellTiter-Glo reagent was added to all wells using a Thermo Scientific Multidrop Combi. Plates were incubated at room temperature for 20 min before reading on an a Perkin Elmer Envision (Settings: Gripper height 2.5, Fixed measurement height (mm) 6.5, Distance between plate and detector 0, Measurement time (s) 0.1, Glow (ct2) correction factor (0%)).
The inhibitory effect of the compounds on the PI4 KB activity was evaluated by the IC50 of the response relative to the high (no virus, column 12) and low (virus+no inhibitor, column 11) controls by fitting to a four parameter dose response equation.

[2] = target: T1, human PI4KIII-beta 13-828 (D316-330) (Homo sapiens, UniProt Q9UBF8); assay: PI4 KB Activity Assay (ADP-GLO Kinase assay); type: biochemical; settings: 1 mM ATP, 60 μM phosphatidylinositol, 3 hours at room temperature; read-out: mean pIC50 (converted)
T1 construct: human PI4KIII-beta 13-828 (D316-330)
Procedure: The in vitro inhibition of human PI4KIII-beta 13-828 (D316-330) activity was determined by using the ADP-GLO Kinase assay kit from Promega. Inhibitors were dissolved in 100% DMSO at a concentration of 1 mM. Dilutions were prepared in 100% DMSO using a 1 in 3 serial step dilution. A 60 nL stamp from an 11-point titration was transferred to a white low volume 384 well Greiner assay plate ensuring a final DMSO concentration of 1% across the plate and a top final concentration of inhibitor of 10 μM. The PI4KIII-beta assay contained 25 mM Hepes pH 7.5 (NaOH), 10 mM MgCl2, 0.5 mM EGTA, 0.1% Triton X-100, 2 mM TCEP, and 0.1 mg/ml BSA, 1 mM ATP, 60 μM phosphatidylinositol, and 1.5 nM human PI4K-beta 13-828 (D316-330) in a total volume of 6 μL. The assay was initiated with the addition of enzyme, covered, and incubated at room temperature for 3 hours. The assays were stopped with the addition of 6 μl ADP-GLO Reagent containing 0.1% CHAPS to deplete the unconsumed ATP. The plates were incubated at room temperature for 60 min and then 12 μl of the Kinase Detection Reagent containing 0.1% CHAPS was added to convert ADP to ATP and introduce luciferase and luciferin. After 40 min incubation at room temperature the luminescent signal was read on a BMG Labtech PHERAstar FS with the following settings; Gain 3600, Focal height 13.7 mm, measurement interval time 1 s, Settling time 0.2 s. The inhibitory effect of the PI4K-beta activity of the compounds was evaluated by the IC50 of the response relative to the high, no compound, and low, no enzyme, controls by fitting to the four parameter dose response question.

[3] = Spleen Concentration Assay; type: in vivo; settings: male, Wistar Han, rat, intravenous, 1 mg/kg, intravenous infusion 1 mg/kg over 1 h, single male Wistar Han rat, 12 hours after the start of dosing
Procedure: e) Spleen Concentration Assay Compounds 17, 18, 19, 22 and 23 were tested in this spleen accumulation assay. Compounds were administered intravenously to rats to determine what the level of the compound in the spleen would be if all of the inhaled dose was absorbed (either orally or through the lungs) and systemic circulation was exposed to the full dose. Compounds 17, 19, 22 and 23 were formulated in 2% DMSO in Kleptose (aq, 10% w/v). Compound 18 was formulated in a 5:45:50 ratio of DMSO:PEG200:water. Formulations were administered as intravenous infusions (1 mg/kg over 1 h) to a single male, Wistar Han rat. 12 hours after the start of dosing, rats were euthanised and spleens were collected. Approximately 0.5 g samples of spleen were taken and homogenised in 4 mL water. 100 μL of the resulting homogenates were prepared by protein precipitation with 300 μL of acetonitrile containing an internal standard and assayed (along with calibration standards prepared in the same manner) by reversed-phase liquid chromatography-mass spectrometry, using a heated electrospray source and operated in the positive ion multiple reaction monitoring mode. The liquid chromatography column used was a Waters Cortecs C18 2.7 μm particle size, 50×2.1 mm column at 60° C., and the mobile phase, operated as a gradient, utilised (A) 0.1% formic acid (aq) and (B) 0.1% formic acid in acetonitrile, operated at a flow rate of 1 mL/min.

[4] = intranasal administration, rat model; cited from earlier work

T1 sequence (Q9UBF8 1-801 isoform Q9UBF8-2): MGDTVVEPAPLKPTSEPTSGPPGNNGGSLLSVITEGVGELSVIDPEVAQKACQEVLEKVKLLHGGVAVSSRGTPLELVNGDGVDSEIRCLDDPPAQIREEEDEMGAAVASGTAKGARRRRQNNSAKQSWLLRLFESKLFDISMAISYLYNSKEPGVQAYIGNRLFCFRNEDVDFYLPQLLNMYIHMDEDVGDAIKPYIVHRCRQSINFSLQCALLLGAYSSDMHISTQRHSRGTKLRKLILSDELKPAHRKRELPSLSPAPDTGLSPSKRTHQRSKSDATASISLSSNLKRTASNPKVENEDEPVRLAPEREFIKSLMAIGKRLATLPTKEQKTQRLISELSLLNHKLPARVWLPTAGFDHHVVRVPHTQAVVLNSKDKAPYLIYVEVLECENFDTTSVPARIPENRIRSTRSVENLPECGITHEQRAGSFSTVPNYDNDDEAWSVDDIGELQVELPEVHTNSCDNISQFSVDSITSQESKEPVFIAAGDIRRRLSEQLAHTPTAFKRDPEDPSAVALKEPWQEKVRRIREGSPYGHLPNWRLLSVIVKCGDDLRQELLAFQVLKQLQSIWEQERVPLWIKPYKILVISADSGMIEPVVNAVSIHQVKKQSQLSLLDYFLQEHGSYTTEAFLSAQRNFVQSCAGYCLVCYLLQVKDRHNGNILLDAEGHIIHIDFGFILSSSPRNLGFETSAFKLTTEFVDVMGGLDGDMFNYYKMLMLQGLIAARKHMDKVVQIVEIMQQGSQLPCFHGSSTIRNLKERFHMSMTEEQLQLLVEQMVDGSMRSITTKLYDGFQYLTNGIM

| SMILES | IC50 [1] [nM] | IC50 [2] [nM] | concentration at 12 h [3] [ng/g] | accumulation of compound in lung tissue [4] |
| --- | --- | --- | --- | --- |
| Cc1ccc(-c2c(C)nn3c(NCc4cccc(-c5nccn5C)c4)cc(C(C)CO)nc23)cc1C(=O)N(C)CCCO (centres unmarked) [Compound 54, 5-(5-(1-Hydroxypropan-2-yl)-2-methyl-7-((3-(1-methyl-1H-imidazol-2-yl)benzyl)amino)pyrazolo[1,5-a]pyrimidin-3-yl)-N-(3-hydroxypropyl)-N,2-dimethylbenzamide] | ≤ 25.1 | ≤ 3.98 | – | – |
| COc1ccc(-c2c(C)nn3c(NCc4cccc(-c5nccn5C)c4)cc(C(C)(C)O)nc23)cc1C(=O)N1CCCOCC1 [Compound 28] | ≤ 25.1 | ≤ 3.98 | – | – |
| COc1ccc(-c2c(C)nn3c(NCc4cccc(-c5nccn5C)c4)cc(C(C)O)nc23)cc1S(=O)(=O)CCO (centres unmarked) [Compound 2, 2-((5-(5-(1-Hydroxyethyl)-2-methyl-7-((3-(1-methyl-1H-imidazol-2-yl)benzyl)amino)pyrazolo[1,5-a]pyrimidin-3-yl)-2-methoxyphenyl)sulfonyl)ethan-1-ol] | ≤ 25.1 | ≤ 3.98 | – | – |
| Cc1ccc(-c2c(C)nn3c(NCc4cccc(-c5nccn5C)c4)cc(C4(O)CC4)nc23)cc1C(=O)N(C)CCCO [Compound 79, 5-(5-(1-Hydroxycyclopropyl)-2-methyl-7-((3-(1-methyl-1H-imidazol-2-yl)benzyl)amino)pyrazolo[1,5-a]pyrimidin-3-yl)-N-(3-hydroxypropyl)-N,2-dimethylbenzamide] | ≤ 25.1 | ≤ 3.98 | – | – |
| COc1ccc(-c2c(C)nn3c(NCc4cccc(-c5nccn5C)c4)cc(C(C)(C)O)nc23)cc1C(=O)N1CCC(C)(O)C1 (centres unmarked) [Compound 27] | ≤ 25.1 | ≤ 3.98 | – | – |
| COc1ccc(-c2c(C)nn3c(NCc4cccc(-c5nccn5C)c4)cc(C(O)C4CC4)nc23)cc1S(=O)(=O)CCO (centres unmarked) [Compound 4] | ≤ 25.1 | ≤ 3.98 | – | – |
| COc1ccc(-c2c(C)nn3c(NCc4cccc(-c5nccn5C)c4)cc(C(C)(C)O)nc23)cc1C(=O)N(C)CCCO [Compound 32, 5-(5-(2-hydroxypropan-2-yl)-2-methyl-7-((3-(1-methyl-1H-imidazol-2-yl)benzyl)amino)pyrazolo[1,5-a]pyrimidin-3-yl)-N-(3-hydroxypropyl)-2-methoxy-N-methylbenzamide] | ≤ 25.1 | ≤ 3.98 | – | – |
| COc1ccc(-c2c(C)nn3c(NCc4cccc(-c5nccn5C)c4)cc(CC4CCOCC4)nc23)cc1S(=O)(=O)CCO [Compound 85, 2-((2-Methoxy-5-(2-methyl-7-((3-(1-methyl-1H-imidazol-2-yl)benzyl)amino)-5-((tetrahydro-2H-pyran-4-yl)methyl)pyrazolo[1,5-a]pyrimidin-3-yl)phenyl)sulfonyl)ethan-1-ol] | ≤ 25.1 | ≤ 3.98 | – | – |
| COc1ccc(-c2c(C)nn3c(NCc4cccc(-c5nccn5C)c4)cc(C(C)(C)O)nc23)cc1C(=O)N(C)C [Compound 23] | – | ≤ 3.98 | < 7 | – |
| COc1ccc(-c2c(C)nn3c(NCc4cccc(-n5cccc5)c4)cc(OCCCN(C)C)nc23)cc1S(C)(=O)=O [GSK3180404A] | – | – | – | substantial accumulation of compound in lung tissue |
| Cc1ccc(-c2c(C)nn3c(NCc4cccc(-c5nccn5C)c4)cc(C(C)(C)O)nc23)cc1C(=O)NCCCO [Compound 60] | ≤ 25.1 | ≤ 3.98 | – | – |
| CCN(CCO)C(=O)c1cc(-c2c(C)nn3c(NCc4cccc(-c5nccn5C)c4)cc(C(C)(C)O)nc23)ccc1C [Compound 38, N-ethyl-N-(2-hydroxyethyl)-5-(5-(2-hydroxypropan-2-yl)-2-methyl-7-((3-(1-methyl-1H-imidazol-2-yl)benzyl)amino)pyrazolo[1,5-a]pyrimidin-3-yl)-2-methylbenzamide] | ≤ 25.1 | ≤ 3.98 | – | – |
| Cc1nn2c(NCc3cccc(-c4nccn4C)c3)cc(C(C)(C)O)nc2c1-c1cccc(C(=O)N(C)CCCO)c1 [Compound 87, 3-(5-(2-Hydroxypropan-2-yl)-2-methyl-7-((3-(1-methyl-1H-imidazol-2-yl)benzyl)amino)pyrazolo[1,5-a]pyrimidin-3-yl)-N-(3-hydroxypropyl)-N-methylbenzamide] | ≤ 25.1 | ≤ 3.98 | – | – |
| COc1ccc(-c2c(C)nn3c(NCc4cccc(-c5nccn5C)c4)cc(C(C)(C)O)nc23)cc1C(=O)N1CC[C@H](O)C1 [Compound 8, (S)-(5-(5-(2-Hydroxypropan-2-yl)-2-methyl-7-((3-(1-methyl-1H-imidazol-2-yl)benzyl)amino)pyrazolo[1,5-a]pyrimidin-3-yl)-2-methoxyphenyl)(3-hydroxypyrrolidin-1-yl)methanone] | ≤ 25.1 | – | – | – |
| COc1ccc(-c2c(C)nn3c(NCc4cccc(-c5nccn5C)c4)cc(C(C)(C)O)nc23)cc1C(=O)N(C)CCO [Compound 26] | ≤ 25.1 | ≤ 3.98 | – | – |
| COc1ccc(-c2c(C)nn3c(NCc4cccc(-c5nccn5C)c4)cc(C(C)O)nc23)cc1S(=O)(=O)CCO (single isomer, unassigned) [Compound 71, 2-((5-(5-(1-Hydroxyethyl)-2-methyl-7-((3-(1-methyl-1H-imidazol-2-yl)benzyl)amino)pyrazolo[1,5-a]pyrimidin-3-yl)-2-methoxyphenyl)sulfonyl)ethan-1-ol] | ≤ 25.1 | ≤ 3.98 | – | – |
| CCC(O)c1cc(NCc2cccc(-c3nccn3C)c2)n2nc(C)c(-c3ccc(OC)c(C(=O)N(C)C4CCOCC4)c3)c2n1 (single isomer, unassigned) [Compound 77, 5-(5-(1-Hydroxypropyl)-2-methyl-7-((3-(1-methyl-1H-imidazol-2-yl)benzyl)amino)pyrazolo[1,5-a]pyrimidin-3-yl)-2-methoxy-N-methyl-N-(tetrahydro-2H-pyran-4-yl)benzamide] | ≤ 25.1 | ≤ 3.98 | – | – |
